According to ChEMBL document CHEMBL1201862, “PubChem BioAssay data set” (2004):
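These data come from cells grown in 96-well plates and exposed to compound for 48 hours at five concentrations. GI50 is the concentration that inhibits growth by half.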 Activity calls are given as the source filed them. Cut-off read from the data, not from the text of the source: active = GI50 up to about 1.1 µM and inactive = higher.

Assays:
Assay in all cases: NCI anticancer screen, dose series, 48 h
[1] = test system: 786-0
[2] = test system: A549
[3] = test system: CAKI-1
[4] = test system: CCRF-CEM
[5] = test system: COLO 205
[6] = test system: DU-145
[7] = test system: EKVX
[8] = test system: HCC 2998
[9] = test system: HCT-15
[10] = test system: HL-60
[11] = test system: HOP-62
[12] = test system: HT-29
[13] = test system: IGROV-1
[14] = test system: K562
[15] = test system: KM12
[16] = test system: LOX IMVI
[17] = test system: M14
[18] = test system: MCF7
[19] = test system: MDA-MB-231
[20] = test system: MDA-N
[21] = test system: MOLT-4
[22] = test system: Malme-3M
[23] = test system: NCI-H23
[24] = test system: OVCAR-8
[25] = test system: PC-3
[26] = test system: RPMI-8226
[27] = test system: RXF 393
[28] = test system: SF-268
[29] = test system: SF-295
[30] = test system: SK-MEL-28
[31] = test system: SK-MEL-5
[32] = test system: SK-OV-3
[33] = test system: SN12C
[34] = test system: SNB-75
[35] = test system: SR
[36] = test system: SW-620
[37] = test system: T47D
[38] = test system: TK-10
[39] = test system: UACC-257
[40] = test system: UACC-62
[41] = test system: A498
[42] = test system: ACHN
[43] = test system: HCT-116
[44] = test system: HOP-92
[45] = test system: MDA-MB-435
[46] = test system: NCI-H226
[47] = test system: NCI-H460
[48] = test system: NCI-H522
[49] = test system: NCI/ADR-RES
[50] = test system: OVCAR-3
[51] = test system: OVCAR-4
[52] = test system: OVCAR-5
[53] = test system: SK-MEL-2
[54] = test system: SNB-19
[55] = test system: U-251
[56] = test system: UO-31

CN1CCN(c2cc3nsnc3c3nsnc23)CC1
GI50 [1]: > 10 µM (inactive) | GI50 [2]: > 10 µM (inactive) | GI50 [3]: > 10 µM (inactive) | GI50 [4]: > 10 µM (inactive) | GI50 [5]: > 10 µM (inactive) | GI50 [6]: > 10 µM (inactive) | GI50 [7]: > 10 µM (inactive) | GI50 [8]: > 10 µM (inactive) | GI50 [9]: > 10 µM | GI50 [10]: > 10 µM (inactive) | GI50 [11]: > 10 µM (inactive) | GI50 [12]: > 10 µM (inactive) | GI50 [13]: > 10 µM (inactive) | GI50 [14]: > 10 µM (inactive) | GI50 [15]: > 10 µM (inactive) | GI50 [16]: > 10 µM (inactive) | GI50 [17]: > 10 µM (inactive) | GI50 [18]: > 10 µM (inactive) | GI50 [19]: > 10 µM (inactive) | GI50 [20]: > 10 µM (inactive) | GI50 [21]: > 10 µM (inactive) | GI50 [22]: > 10 µM (inactive) | GI50 [23]: > 10 µM (inactive) | GI50 [24]: > 10 µM (inactive) | GI50 [25]: > 10 µM (inactive) | GI50 [26]: > 10 µM (inactive) | GI50 [27]: > 10 µM (inactive) | GI50 [28]: > 10 µM (inactive) | GI50 [29]: > 10 µM (inactive) | GI50 [30]: > 10 µM (inactive) | GI50 [31]: > 10 µM (inactive) | GI50 [32]: > 10 µM (inactive) | GI50 [33]: > 10 µM (inactive) | GI50 [34]: > 10 µM (inactive) | GI50 [35]: > 10 µM (inactive) | GI50 [36]: > 10 µM (inactive) | GI50 [37]: > 10 µM (inactive) | GI50 [38]: > 10 µM (inactive) | GI50 [39]: > 10 µM (inactive) | GI50 [40]: > 10 µM (inactive)

CN(C(=O)C1=CCC2(CC1)OCCO2)c1ccccc1I
GI50 [1]: > 100 µM (inactive) | GI50 [41]: > 100 µM (inactive) | GI50 [2]: > 100 µM (inactive) | GI50 [42]: > 100 µM (inactive) | GI50 [3]: > 100 µM (inactive) | GI50 [4]: > 100 µM (inactive) | GI50 [5]: > 100 µM (inactive) | GI50 [6]: > 100 µM (inactive) | GI50 [7]: > 100 µM (inactive) | GI50 [8]: > 100 µM (inactive) | GI50 [43]: > 100 µM (inactive) | GI50 [9]: > 100 µM | GI50 [10]: 96.6 µM (inactive) | GI50 [11]: > 100 µM (inactive) | GI50 [44]: > 100 µM (inactive) | GI50 [12]: > 100 µM (inactive) | GI50 [13]: > 100 µM (inactive) | GI50 [14]: > 100 µM (inactive) | GI50 [15]: > 100 µM (inactive) | GI50 [16]: > 100 µM (inactive) | GI50 [17]: > 100 µM (inactive) | GI50 [18]: > 100 µM (inactive) | GI50 [19]: > 100 µM (inactive) | GI50 [45]: > 100 µM (inactive) | GI50 [20]: > 100 µM (inactive) | GI50 [21]: > 100 µM (inactive) | GI50 [46]: > 100 µM (inactive) | GI50 [23]: > 100 µM (inactive) | GI50 [47]: > 100 µM (inactive) | GI50 [48]: > 100 µM (inactive) | GI50 [49]: > 100 µM (inactive) | GI50 [50]: > 100 µM (inactive) | GI50 [51]: > 100 µM (inactive) | GI50 [52]: > 100 µM (inactive) | GI50 [24]: > 100 µM (inactive) | GI50 [25]: > 100 µM (inactive) | GI50 [26]: > 100 µM (inactive) | GI50 [29]: > 100 µM (inactive) | GI50 [30]: > 100 µM (inactive) | GI50 [53]: > 100 µM (inactive) | GI50 [31]: > 100 µM (inactive) | GI50 [32]: > 100 µM (inactive) | GI50 [33]: > 100 µM (inactive) | GI50 [54]: > 100 µM (inactive) | GI50 [34]: > 100 µM (inactive) | GI50 [35]: > 100 µM (inactive) | GI50 [36]: > 100 µM (inactive) | GI50 [37]: > 100 µM (inactive) | GI50 [38]: > 100 µM (inactive) | GI50 [55]: > 100 µM (inactive) | GI50 [39]: > 100 µM (inactive) | GI50 [40]: > 100 µM (inactive) | GI50 [56]: > 100 µM (inactive)

CC(CN(C)C)Nc1c2ccccc2nc2cccc([N+](=O)[O-])c12 (stereo unspecified)
GI50 [48]: < 0.0153 µM (active) | GI50 [27]: < 0.01 µM (active) | GI50 [53]: < 0.01 µM (active)
